In BindingDB's records for patent US11795173 (Xinthera, 2023) one finds IC50 data, which are given here for 2 compounds.

SMILES strings stand for the structures.

Experiment [1] addresses Poly [ADP-ribose] polymerase 2 (Homo sapiens, UniProt Q9UGN5). The experiment in a line: Biochemical (FP) Assay. The protocol:
(§1) PARP1 and PARP2 protein were expressed, purified, and diluted in assay buffer containing 50 mM Tris pH 8.0, 0.001% Triton X-100, 10 mM MgCI2, 150 mM NaCI to a final concentration of 20 nM.

The target of experiment [2] is Poly [ADP-ribose] polymerase 1 (Homo sapiens, UniProt P09874). The experiment in a line: Biochemical (FP) Assay. The protocol: as §1
Chain of Poly [ADP-ribose] polymerase 1 (P09874 whole entry): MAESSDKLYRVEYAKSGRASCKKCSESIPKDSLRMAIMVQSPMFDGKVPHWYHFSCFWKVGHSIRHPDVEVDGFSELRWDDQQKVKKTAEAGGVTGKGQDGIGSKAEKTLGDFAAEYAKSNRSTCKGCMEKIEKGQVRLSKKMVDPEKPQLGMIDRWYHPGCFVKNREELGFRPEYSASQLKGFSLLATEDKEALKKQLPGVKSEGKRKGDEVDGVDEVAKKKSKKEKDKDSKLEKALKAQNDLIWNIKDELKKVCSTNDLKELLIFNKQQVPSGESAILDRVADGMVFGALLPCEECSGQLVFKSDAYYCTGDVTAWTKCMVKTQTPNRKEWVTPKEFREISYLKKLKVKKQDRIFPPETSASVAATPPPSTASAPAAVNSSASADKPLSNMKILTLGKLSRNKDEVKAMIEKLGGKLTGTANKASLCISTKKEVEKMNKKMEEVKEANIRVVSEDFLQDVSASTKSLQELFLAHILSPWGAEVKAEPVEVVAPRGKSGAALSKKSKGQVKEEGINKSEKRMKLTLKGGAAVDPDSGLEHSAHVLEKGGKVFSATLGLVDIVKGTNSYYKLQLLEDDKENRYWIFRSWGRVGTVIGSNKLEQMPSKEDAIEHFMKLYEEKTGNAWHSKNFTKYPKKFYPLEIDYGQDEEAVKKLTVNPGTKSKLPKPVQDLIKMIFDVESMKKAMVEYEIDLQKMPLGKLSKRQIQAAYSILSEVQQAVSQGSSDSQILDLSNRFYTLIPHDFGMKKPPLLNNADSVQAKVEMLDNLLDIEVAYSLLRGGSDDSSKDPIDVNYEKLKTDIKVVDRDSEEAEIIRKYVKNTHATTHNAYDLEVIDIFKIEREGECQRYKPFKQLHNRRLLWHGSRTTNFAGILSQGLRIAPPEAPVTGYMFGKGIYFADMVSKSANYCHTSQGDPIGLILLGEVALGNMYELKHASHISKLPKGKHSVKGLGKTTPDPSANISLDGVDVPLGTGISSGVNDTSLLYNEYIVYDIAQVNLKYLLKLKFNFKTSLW

Chain of Poly [ADP-ribose] polymerase 2 (Q9UGN5 whole entry): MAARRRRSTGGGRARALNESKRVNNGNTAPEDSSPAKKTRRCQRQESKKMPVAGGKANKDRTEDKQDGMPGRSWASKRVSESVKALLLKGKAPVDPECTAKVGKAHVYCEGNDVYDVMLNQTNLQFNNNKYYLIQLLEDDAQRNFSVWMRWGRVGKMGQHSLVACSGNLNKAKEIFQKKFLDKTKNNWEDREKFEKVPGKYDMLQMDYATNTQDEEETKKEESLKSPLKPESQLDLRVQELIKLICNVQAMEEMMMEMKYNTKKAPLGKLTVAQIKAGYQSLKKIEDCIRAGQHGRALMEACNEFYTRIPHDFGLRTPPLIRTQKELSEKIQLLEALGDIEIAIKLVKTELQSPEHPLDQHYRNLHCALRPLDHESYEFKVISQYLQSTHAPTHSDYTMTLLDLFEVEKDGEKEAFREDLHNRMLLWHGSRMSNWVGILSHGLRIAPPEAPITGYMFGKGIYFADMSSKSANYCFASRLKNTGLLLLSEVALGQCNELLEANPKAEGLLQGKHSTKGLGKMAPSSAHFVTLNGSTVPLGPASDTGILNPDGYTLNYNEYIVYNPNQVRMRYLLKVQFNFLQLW

For `CNC(=O)c1ccc(N2CCN(Cc3ccc4c5c(c(=O)[nH]c4c3)CCO5)CC2)c(Cl)n1` [US11795173, Comp. Ex. 2], the 50% inhibitory concentration (IC50) (commonly the midpoint of a concentration-inhibition curve) in experiment [1] was above 100000 nM; in experiment [2] it was 4 nM.

`CNC(=O)c1ccc(N2CCN(Cc3cc(F)c4c5c(c(=O)[nH]c4c3)COC5)CC2)c(F)n1` [US11795173, Comp. Ex. 3]: the IC50 in experiment [1] is above 100000 nM; in experiment [2], 4.3 nM.
